Test results from ChEMBL document CHEMBL1201862, “PubChem BioAssay data set” (2004).
Calls of active or inactive are those of the source.

Key:
Cannabinoid receptor 2 [1] = molecular target: T1, Cannabinoid receptor 2 (Homo sapiens, UniProt P34972); experiment: SAR analysis of agonists of the Cannabinoid Receptor 2 using an Image-Based Assay - Set 3. [Related pubchem assays (depositor defined):AID2013, AID2026]; format: functional
[2] = molecular target: G-protein coupled receptor 55 (Homo sapiens, UniProt Q9Y2T6); experiment: SAR Analysis of Selective Antagonists of GPR55 using an Image-Based Assay - Set 4. [Related pubchem assays (depositor defined):AID2013, AID2026]; format: functional;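 further: antagonism of response to 5 µM lysophosphatidylinositol agonist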
Sequence of G-protein coupled receptor 55 (Q9Y2T6 whole entry): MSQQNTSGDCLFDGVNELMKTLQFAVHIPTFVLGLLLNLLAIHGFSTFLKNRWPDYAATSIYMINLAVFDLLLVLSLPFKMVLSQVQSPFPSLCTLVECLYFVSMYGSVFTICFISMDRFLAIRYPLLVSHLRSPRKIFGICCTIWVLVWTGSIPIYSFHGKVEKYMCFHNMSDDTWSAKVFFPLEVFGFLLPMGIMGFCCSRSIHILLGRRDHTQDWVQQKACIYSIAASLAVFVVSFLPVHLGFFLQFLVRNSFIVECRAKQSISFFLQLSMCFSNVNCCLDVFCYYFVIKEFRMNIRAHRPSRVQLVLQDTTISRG

Cannabinoid receptor 1 [3] = molecular target: T2, Cannabinoid receptor 1 (Homo sapiens, UniProt P21554); experiment: SAR analysis of agonists of the Cannabinoid Receptor 1 using an Image-Based Assay - Set 4. [Related pubchem assays (depositor defined):AID2013, AID2026]; format: functional
T2 sequence (P21554 whole entry): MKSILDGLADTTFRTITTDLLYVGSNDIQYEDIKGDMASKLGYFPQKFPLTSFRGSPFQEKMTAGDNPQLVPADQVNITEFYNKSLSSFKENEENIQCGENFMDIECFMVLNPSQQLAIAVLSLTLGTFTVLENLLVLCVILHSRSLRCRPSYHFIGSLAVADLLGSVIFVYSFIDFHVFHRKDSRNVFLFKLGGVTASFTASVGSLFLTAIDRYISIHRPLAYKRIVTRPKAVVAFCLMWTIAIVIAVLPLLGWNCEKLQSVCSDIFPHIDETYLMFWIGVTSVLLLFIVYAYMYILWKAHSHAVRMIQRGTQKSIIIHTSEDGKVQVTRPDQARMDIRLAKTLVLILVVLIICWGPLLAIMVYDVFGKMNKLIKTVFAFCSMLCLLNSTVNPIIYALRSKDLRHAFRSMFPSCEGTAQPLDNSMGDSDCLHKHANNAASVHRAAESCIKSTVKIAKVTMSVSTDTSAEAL

Cannabinoid receptor 1 [4] = molecular target: T2, Cannabinoid receptor 1; experiment: SAR analysis of antagonists of the Cannabinoid Receptor 1 using an Image-Based Assay - Set 4. [Related pubchem assays (depositor defined):AID2013, AID2026]; format: functional
[5] = molecular target: T3, G-protein coupled receptor 35 (Homo sapiens, UniProt Q9HC97); experiment: SAR analysis of Antagonists of the GPR35 Receptor using an Image-Based Assay - Set 6. [Related pubchem assays (depositor defined):AID2013, AID2026]; format: functional
T3 sequence (Q9HC97 whole entry): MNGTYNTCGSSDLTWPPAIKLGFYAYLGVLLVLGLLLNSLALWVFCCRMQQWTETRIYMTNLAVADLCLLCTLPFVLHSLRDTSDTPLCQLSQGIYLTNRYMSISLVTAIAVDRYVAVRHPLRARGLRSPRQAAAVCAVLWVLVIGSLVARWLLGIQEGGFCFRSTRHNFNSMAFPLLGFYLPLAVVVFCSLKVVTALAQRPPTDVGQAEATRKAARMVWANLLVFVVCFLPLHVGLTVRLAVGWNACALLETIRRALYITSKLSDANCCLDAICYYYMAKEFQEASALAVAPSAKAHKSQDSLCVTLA

[6] = molecular target: T3, G-protein coupled receptor 35; experiment: SAR analysis of Agonists of the GPR35 Receptor using an Image-Based Assay - Set 4. [Related pubchem assays (depositor defined):AID2013, AID2026]; format: functional
Cannabinoid receptor 2 [7] = molecular target: T1, Cannabinoid receptor 2; experiment: SAR analysis of antagonists of the Cannabinoid Receptor 2 using an Image-Based Assay - Set 3. [Related pubchem assays (depositor defined):AID2013, AID2026]; format: functional
[8] = molecular target: Kappa-type opioid receptor (Homo sapiens, UniProt P41145); experiment: SAR analysis of small molecule agonists of the kappa opioid receptor via a luminescent beta-arrestin assay - Set 3. [Related pubchem assays (depositor defined):AID1777, AID1785, AID1786, AID1966, AID2133, AID2136, AID2284, AID2500]; format: functional
Sequence of Kappa-type opioid receptor (P41145 whole entry): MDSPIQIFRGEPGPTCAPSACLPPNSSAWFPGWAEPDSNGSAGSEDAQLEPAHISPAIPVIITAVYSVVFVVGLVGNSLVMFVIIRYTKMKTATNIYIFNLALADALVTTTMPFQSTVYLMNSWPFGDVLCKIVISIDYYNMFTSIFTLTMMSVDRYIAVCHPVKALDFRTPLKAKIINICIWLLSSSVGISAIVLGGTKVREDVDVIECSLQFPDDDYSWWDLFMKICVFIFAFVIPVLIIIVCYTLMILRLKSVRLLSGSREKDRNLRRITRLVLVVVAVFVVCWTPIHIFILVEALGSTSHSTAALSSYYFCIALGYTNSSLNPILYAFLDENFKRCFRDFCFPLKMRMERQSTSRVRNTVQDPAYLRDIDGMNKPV

[9] = system: Streptococcus sp. 'group A'; experiment: Streptococcus pyogenes SK(-)GAS viability under kanamycin – luminescence, BacTiterGlo, confirmation, counter-screen for streptokinase expression inhibitor project, dose response (AID 1900); format: functional, organism-based
Streptococcus = experiment: GAS UMAA2166 growth inhibition – luminescence, BacTiterGlo, counter-screen for streptokinase expression inhibitor project, dose response (AID 1915); format: functional, organism-based;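 further: potency for reduction of bacterial viability or growth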
[10] = Luminescence Cell-Based Dose Retest to Confirm Inhibitors of Cancer Stem Cells. [Related pubchem assays (depositor defined):AID2717, AID2721]; format: functional; details: Homo sapiens
[11] = PhoP promoter GFP reporter reduction in Typhimurium – purified and synthesized compounds, set 2, PhoP regulon inhibitor project, dose response (AID 2831); format: functional
[12] = viability of PTEN-deleted HCT116 cells – cell-based, HCT116 PTEN knockout, dose response (AID 1047); format: functional;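 further: HCT116 colon tumor cells with PTEN knocked out; cells exposed to compound for 60 hours before readout; potency for loss of cell viability measured by luminescence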
Streptokinase A = molecular target: T4, Streptokinase A (Streptococcus pyogenes serotype M1, UniProt P10520); experiment: viability-normalized secreted streptokinase activity reduction – plasminogen activation absorbance, OD405, dose response (AID 1914); format: functional, Streptococcus pyogenes M1 GAS;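 further: secreted streptokinase activity via plasminogen activation per viability signal from cell pellet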
T4 sequence (P10520 whole entry): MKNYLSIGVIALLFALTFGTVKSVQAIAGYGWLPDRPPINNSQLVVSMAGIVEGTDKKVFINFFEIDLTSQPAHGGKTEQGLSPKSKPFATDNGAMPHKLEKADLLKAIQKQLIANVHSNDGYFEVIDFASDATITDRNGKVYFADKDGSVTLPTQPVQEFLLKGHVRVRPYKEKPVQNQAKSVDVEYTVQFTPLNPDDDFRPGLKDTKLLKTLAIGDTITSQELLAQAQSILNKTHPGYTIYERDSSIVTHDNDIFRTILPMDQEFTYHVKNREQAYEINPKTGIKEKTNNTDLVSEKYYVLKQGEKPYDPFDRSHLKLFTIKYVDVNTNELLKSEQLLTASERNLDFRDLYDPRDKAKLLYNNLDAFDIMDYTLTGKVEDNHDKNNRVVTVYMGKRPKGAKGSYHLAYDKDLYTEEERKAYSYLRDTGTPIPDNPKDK

[13] = viability of HCT116 lacking mutant beta-catenin – cell-based, human colon tumor, dose response (AID 1045); format: functional;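 further: HCT116 colon tumor cells with beta catenin knocked out; cells exposed to compound for 60 hours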
[14] = molecular target: T5, Tyrosine-protein phosphatase non-receptor type 7 (Homo sapiens, UniProt P35236); experiment: inhibition of hematopoietic tyrosine phosphatase HePTP – biochemical, set 2, SAR follow-up (AID 449736); format: functional
T5 sequence (P35236 whole entry): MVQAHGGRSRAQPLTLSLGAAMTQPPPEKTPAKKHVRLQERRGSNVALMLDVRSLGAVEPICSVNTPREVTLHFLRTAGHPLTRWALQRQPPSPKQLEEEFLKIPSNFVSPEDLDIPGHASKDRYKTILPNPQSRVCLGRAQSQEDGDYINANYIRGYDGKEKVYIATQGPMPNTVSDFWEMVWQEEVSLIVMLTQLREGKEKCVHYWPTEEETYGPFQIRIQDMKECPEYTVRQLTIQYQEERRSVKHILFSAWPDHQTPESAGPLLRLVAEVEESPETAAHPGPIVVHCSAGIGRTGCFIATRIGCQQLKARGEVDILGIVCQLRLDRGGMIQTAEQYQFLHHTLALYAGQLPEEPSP

[15] = molecular target: Tyrosine-protein phosphatase non-receptor type 12 (Homo sapiens, UniProt Q05209); experiment: SAR Selectivity Analysis of small molecule inhibitors of PEST using pCAP in a fluorescence assay. [Related pubchem assays (depositor defined):AID1779, AID1784, AID2135]; format: functional
Sequence of Tyrosine-protein phosphatase non-receptor type 12 (Q05209 whole entry): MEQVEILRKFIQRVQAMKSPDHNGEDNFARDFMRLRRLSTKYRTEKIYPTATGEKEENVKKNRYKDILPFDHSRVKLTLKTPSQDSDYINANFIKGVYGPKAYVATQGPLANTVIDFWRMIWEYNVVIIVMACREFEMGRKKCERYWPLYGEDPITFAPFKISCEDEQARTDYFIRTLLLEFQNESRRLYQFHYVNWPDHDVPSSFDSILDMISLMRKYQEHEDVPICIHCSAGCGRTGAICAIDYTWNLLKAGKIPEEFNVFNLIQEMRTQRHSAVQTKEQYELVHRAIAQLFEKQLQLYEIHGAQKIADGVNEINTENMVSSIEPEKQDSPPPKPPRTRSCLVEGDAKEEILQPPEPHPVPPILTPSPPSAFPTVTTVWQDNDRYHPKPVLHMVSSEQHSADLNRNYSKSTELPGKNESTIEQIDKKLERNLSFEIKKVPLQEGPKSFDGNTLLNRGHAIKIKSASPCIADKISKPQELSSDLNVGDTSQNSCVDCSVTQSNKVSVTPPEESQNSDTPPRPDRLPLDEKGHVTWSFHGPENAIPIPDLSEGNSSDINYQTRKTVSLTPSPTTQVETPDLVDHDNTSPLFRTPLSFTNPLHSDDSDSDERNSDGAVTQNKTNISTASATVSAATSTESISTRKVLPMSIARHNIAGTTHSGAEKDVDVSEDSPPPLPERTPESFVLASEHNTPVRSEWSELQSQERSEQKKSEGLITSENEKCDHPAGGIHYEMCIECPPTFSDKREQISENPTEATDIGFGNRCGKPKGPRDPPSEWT

[16] = molecular target: T6, Tyrosine-protein phosphatase non-receptor type 22 (Homo sapiens, UniProt Q9Y2R2); experiment: SAR LYP1 Fluorescent Assay using OMFP substrate for In Vitro dose response studies - Set 2. [Related pubchem assays (depositor defined):AID1779, AID1784, AID2140, AID449726, AID488869]; format: functional
T6 sequence (Q9Y2R2 whole entry): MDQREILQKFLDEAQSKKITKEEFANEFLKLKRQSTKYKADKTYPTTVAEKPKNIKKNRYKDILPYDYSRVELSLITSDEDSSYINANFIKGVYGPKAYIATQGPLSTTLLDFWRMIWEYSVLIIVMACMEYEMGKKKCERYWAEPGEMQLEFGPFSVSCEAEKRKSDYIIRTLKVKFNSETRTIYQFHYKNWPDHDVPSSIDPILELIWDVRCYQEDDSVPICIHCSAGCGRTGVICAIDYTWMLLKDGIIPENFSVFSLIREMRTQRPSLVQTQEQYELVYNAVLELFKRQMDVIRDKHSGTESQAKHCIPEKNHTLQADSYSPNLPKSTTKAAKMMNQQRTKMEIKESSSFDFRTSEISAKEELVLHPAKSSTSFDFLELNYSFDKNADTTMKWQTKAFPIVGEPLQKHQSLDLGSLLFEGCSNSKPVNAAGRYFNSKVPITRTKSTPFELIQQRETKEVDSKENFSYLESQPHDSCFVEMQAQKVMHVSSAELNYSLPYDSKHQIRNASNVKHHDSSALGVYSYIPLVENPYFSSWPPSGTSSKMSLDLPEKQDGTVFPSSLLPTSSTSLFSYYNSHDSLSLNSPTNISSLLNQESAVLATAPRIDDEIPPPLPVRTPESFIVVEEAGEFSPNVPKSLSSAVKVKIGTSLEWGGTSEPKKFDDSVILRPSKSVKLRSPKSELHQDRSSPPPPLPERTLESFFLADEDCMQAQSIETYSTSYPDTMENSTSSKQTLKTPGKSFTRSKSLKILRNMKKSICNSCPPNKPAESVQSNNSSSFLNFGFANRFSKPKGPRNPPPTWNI

[17] = molecular target: T6, Tyrosine-protein phosphatase non-receptor type 22; experiment: SAR LYP1 Fluorescent Assay using pCAP substrate for In Vitro dose response studies - Set 2. [Related pubchem assays (depositor defined):AID1779, AID1784, AID2135, AID449727]; format: functional
[18] = molecular target: T6, Tyrosine-protein phosphatase non-receptor type 22; experiment: SAR LYP1 Fluorescent Assay using OMFP substrate for In Vitro dose response studies - Set 3. [Related pubchem assays (depositor defined):AID1779, AID1784, AID2140, AID2686]; format: functional
Hexokinase-1 = molecular target: T7, Hexokinase-1 (Homo sapiens, UniProt P19367); experiment: HK1 enzyme activation by HKDC1 hits – biochemical, selectivity assay for HKDC1 activator project, dose response (AID 504762); format: functional
T7 sequence (P19367 whole entry): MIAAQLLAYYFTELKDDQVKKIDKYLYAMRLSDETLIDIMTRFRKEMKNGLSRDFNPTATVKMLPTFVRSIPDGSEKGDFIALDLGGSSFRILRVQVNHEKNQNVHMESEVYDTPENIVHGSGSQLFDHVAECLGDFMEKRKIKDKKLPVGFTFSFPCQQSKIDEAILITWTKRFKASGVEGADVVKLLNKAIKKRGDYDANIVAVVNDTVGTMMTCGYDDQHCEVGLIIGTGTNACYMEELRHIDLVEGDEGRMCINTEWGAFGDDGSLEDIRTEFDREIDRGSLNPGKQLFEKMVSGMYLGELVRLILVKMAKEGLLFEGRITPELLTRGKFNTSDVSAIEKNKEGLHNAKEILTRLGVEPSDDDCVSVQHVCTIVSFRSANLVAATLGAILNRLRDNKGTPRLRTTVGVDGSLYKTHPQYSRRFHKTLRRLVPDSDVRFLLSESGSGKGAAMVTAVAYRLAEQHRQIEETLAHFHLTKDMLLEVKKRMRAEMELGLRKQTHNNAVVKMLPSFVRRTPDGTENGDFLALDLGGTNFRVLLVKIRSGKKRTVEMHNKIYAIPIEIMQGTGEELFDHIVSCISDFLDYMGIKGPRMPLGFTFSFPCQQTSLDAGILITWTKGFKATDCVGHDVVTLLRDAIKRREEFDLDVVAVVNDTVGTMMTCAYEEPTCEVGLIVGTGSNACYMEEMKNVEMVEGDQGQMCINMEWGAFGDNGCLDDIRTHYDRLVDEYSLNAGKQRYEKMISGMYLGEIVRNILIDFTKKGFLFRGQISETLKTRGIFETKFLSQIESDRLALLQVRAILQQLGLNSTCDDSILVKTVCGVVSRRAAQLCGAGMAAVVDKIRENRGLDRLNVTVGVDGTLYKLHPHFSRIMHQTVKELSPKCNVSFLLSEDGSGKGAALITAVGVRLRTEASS

Hexokinase HKDC1 = molecular target: T8, Hexokinase HKDC1 (Homo sapiens, UniProt Q2TB90); experiment: activation of HKDC1 glucose phosphorylation – biochemical, W721R variant, dose response (AID 504730); format: functional
T8 sequence (Q2TB90 whole entry): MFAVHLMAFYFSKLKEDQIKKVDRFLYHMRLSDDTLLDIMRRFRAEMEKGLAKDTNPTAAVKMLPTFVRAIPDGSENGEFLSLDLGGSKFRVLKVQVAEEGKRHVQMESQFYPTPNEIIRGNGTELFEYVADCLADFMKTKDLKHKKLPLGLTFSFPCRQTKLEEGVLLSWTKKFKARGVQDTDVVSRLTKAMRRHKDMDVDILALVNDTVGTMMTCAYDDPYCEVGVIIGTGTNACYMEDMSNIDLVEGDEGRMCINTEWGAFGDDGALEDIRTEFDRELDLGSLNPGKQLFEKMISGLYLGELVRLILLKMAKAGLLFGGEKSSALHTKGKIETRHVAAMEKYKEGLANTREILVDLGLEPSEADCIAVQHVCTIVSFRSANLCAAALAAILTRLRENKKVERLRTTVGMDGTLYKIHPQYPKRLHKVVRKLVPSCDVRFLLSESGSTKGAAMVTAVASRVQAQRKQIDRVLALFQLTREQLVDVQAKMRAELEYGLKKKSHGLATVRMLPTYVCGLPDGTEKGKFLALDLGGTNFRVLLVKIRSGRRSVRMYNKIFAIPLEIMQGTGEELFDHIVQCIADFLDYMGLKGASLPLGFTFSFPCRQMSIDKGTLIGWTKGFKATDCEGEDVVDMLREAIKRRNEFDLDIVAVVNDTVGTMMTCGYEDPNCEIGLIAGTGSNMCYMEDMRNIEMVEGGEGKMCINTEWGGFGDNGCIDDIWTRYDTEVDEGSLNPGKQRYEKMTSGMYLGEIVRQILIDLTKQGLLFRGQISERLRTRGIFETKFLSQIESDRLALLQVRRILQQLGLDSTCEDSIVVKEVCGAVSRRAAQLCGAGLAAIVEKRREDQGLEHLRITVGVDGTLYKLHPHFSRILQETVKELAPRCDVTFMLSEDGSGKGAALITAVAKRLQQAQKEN
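Wherever AC50 is given: cells exposed to compound for roughly 70 hours or longer before luminescence read.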

T1 sequence (P34972 whole entry): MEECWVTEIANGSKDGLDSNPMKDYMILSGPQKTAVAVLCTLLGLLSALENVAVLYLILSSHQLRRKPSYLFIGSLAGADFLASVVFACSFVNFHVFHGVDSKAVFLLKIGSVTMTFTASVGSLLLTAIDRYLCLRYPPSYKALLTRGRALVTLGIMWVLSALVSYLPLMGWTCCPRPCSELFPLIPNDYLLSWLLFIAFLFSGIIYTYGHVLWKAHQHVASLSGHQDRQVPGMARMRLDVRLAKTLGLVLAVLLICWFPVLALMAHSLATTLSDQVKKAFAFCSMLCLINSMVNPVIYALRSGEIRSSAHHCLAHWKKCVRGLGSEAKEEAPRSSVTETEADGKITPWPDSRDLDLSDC

With `N=c1c(C(=O)NCc2ccco2)cc2c(=O)n3ccccc3nc2n1C1CCCC1` the EC50 (Cannabinoid receptor 2 [1]) was 2.13 µM (active), the IC50 [2] was 28.3 µM (inactive) and the EC50 (Cannabinoid receptor 1 [3]) was > 32 µM (inactive). For the same compound, the IC50 (Cannabinoid receptor 1 [4]) was 31.5 µM (inactive), the IC50 [5] was > 32 µM (inactive) and the EC50 [6] was > 32 µM (inactive). The IC50 (Cannabinoid receptor 2 [7]) was > 32 µM (inactive).
In the case of `FC(F)(F)c1cc(CSc2nnc(-c3ccccn3)n2Cc2ccccc2)ccc1Cl`, the EC50 [8] is reported as 2.22 µM (active).
For `CN1CCN(C2=Cc3cc(Cl)ccc3Sc3cc(F)ccc32)CC1`, the EC50 [9] was 7.44 µM (active), the EC50 (Streptococcus) was 12 µM (active) and the AC50 [10] was 6.63 µM (active). For the same compound, the IC50 [11] was > 125 µM (active), the EC50 [12] was 9.39 µM (active) and the EC50 (Streptokinase A) was > 150 µM (not active). The EC50 [13] was 10.5 µM (active).
For `COc1cc(/C=C(\C#N)C(=O)Nc2cccc(C(=O)O)c2)ccc1OCc1ccc(C)cc1`, the IC50 [14] was 2.02 µM (active), the IC50 [15] was 2.69 µM (active) and the IC50 [16] was 14.7 µM (active). For the same compound, the IC50 [17] was 22.1 µM (active) and the IC50 [18] was 5.39 µM (active).
With `CCOC(=O)c1c(C)[nH]c(C2=NN=C(Nc3ccccc3OC)SC2)c1C` the EC50 (Hexokinase-1) was 15.3 µM (active) and the EC50 (Hexokinase HKDC1) was 15 µM (active).
